Assay results reported in ChEMBL document CHEMBL1201862, “PubChem BioAssay data set” (2004).
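Tested at 5 concentrations; 48 h exposure; 96-well plates; endpoints linearly interpolated, else capped at highest concentration. The concentration for 50% growth inhibition is given as GI50.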 The source made the active and inactive calls. No stated cut-off is given here; in the data, active = GI50 up to about 1.1 µM and inactive = higher.

Key:
Assay in all cases: NCI tumour cell line growth inhibition, 48 h
OVCAR-3 = test system: OVCAR-3
U-251 = test system: U-251
HCT-15 = test system: HCT-15
SK-MEL-28 = test system: SK-MEL-28
NCI-H226 = test system: NCI-H226
EKVX = test system: EKVX
OVCAR-8 = test system: OVCAR-8
SNB-19 = test system: SNB-19
RPMI-8226 = test system: RPMI-8226
DLD-1 = test system: DLD-1
786-0 = test system: 786-0
TK-10 = test system: TK-10
HCC 2998 = test system: HCC 2998
LOX IMVI = test system: LOX IMVI
ACHN = test system: ACHN
KM12 = test system: KM12
HCT-116 = test system: HCT-116
NCI-H460 = test system: NCI-H460
HOP-62 = test system: HOP-62
OVCAR-4 = test system: OVCAR-4
UACC-62 = test system: UACC-62
SNB-78 = test system: SNB-78
SN12C = test system: SN12C
CAKI-1 = test system: CAKI-1
A498 = test system: A498
DMS-273 = test system: DMS-273
XF498 = test system: XF498
MOLT-4 = test system: MOLT-4
SK-OV-3 = test system: SK-OV-3
UO-31 = test system: UO-31
NCI-H23 = test system: NCI-H23
IGROV-1 = test system: IGROV-1
HOP-18 = test system: HOP-18
A549 = test system: A549
COLO 205 = test system: COLO 205
SF-268 = test system: SF-268
SW-620 = test system: SW-620
K562 = test system: K562
HT-29 = test system: HT-29
RXF 393 = test system: RXF 393
OVCAR-5 = test system: OVCAR-5
SK-MEL-2 = test system: SK-MEL-2
KM-20L2 = test system: KM-20L2
LXFL 529 = test system: LXFL 529
HL-60 = test system: HL-60
Malme-3M = test system: Malme-3M
UACC-257 = test system: UACC-257
M19-MEL = test system: M19-MEL
SK-MEL-5 = test system: SK-MEL-5
CCRF-CEM = test system: CCRF-CEM
SNB-75 = test system: SNB-75
SF-295 = test system: SF-295
NCI-H522 = test system: NCI-H522
HOP-92 = test system: HOP-92
SR = test system: SR
SF-539 = test system: SF-539
M14 = test system: M14
DMS-114 = test system: DMS-114

Measured: GI50

C=C1CC2C(=O)N(c3ccccc3)C(=O)C2CC1n1[nH]c(=O)n(Cc2ccccc2)c1=O (configuration not stated)
inactive: OVCAR-3 > 100 µM | U-251 > 100 µM | SK-MEL-28 > 100 µM | NCI-H226 > 100 µM | EKVX > 100 µM | OVCAR-8 > 100 µM | SNB-19 > 100 µM | RPMI-8226 > 100 µM | DLD-1 > 100 µM | 786-0 > 100 µM | TK-10 > 100 µM | HCC 2998 > 100 µM | LOX IMVI > 100 µM | ACHN > 100 µM | KM12 > 100 µM | HCT-116 > 100 µM | NCI-H460 > 100 µM | HOP-62 > 100 µM | OVCAR-4 > 100 µM | UACC-62 > 100 µM | SNB-78 > 100 µM | SN12C > 100 µM | CAKI-1 > 100 µM | A498 > 100 µM | DMS-273 > 100 µM | XF498 > 100 µM | MOLT-4 > 100 µM | SK-OV-3 > 100 µM | UO-31 > 100 µM | NCI-H23 > 100 µM | IGROV-1 > 100 µM | HOP-18 > 100 µM | A549 > 100 µM | COLO 205 > 100 µM | SF-268 > 100 µM | SW-620 > 100 µM | K562 > 100 µM | HT-29 > 100 µM | RXF 393 > 100 µM | OVCAR-5 > 100 µM | SK-MEL-2 > 100 µM | KM-20L2 > 100 µM | LXFL 529 > 100 µM | HL-60 > 100 µM | Malme-3M > 100 µM | UACC-257 > 100 µM | M19-MEL > 100 µM | SK-MEL-5 > 100 µM | CCRF-CEM > 100 µM | SNB-75 > 100 µM | SF-295 > 100 µM | NCI-H522 > 100 µM | HOP-92 > 100 µM | SR > 100 µM | SF-539 > 100 µM | M14 > 100 µM
> 100 µM: HCT-15

Cc1[nH]c2ccccc2c1C(=O)/C=C/c1ccccc1O
inactive: OVCAR-3 > 100 µM | U-251 > 100 µM | SK-MEL-28 > 100 µM | NCI-H226 > 10 µM | EKVX > 100 µM | OVCAR-8 > 100 µM | SNB-19 > 100 µM | DLD-1 > 100 µM | 786-0 > 100 µM | TK-10 > 100 µM | HCC 2998 > 100 µM | LOX IMVI > 100 µM | ACHN > 100 µM | KM12 > 100 µM | HCT-116 > 100 µM | NCI-H460 > 100 µM | HOP-62 > 100 µM | OVCAR-4 > 100 µM | UACC-62 > 100 µM | SN12C > 100 µM | CAKI-1 > 100 µM | A498 > 100 µM | DMS-273 > 100 µM | XF498 > 100 µM | MOLT-4 > 100 µM | SK-OV-3 > 100 µM | UO-31 > 100 µM | NCI-H23 > 100 µM | IGROV-1 > 100 µM | HOP-18 > 100 µM | A549 > 100 µM | COLO 205 > 100 µM | SF-268 > 100 µM | SW-620 > 100 µM | K562 > 100 µM | HT-29 > 100 µM | RXF 393 > 100 µM | OVCAR-5 > 100 µM | SK-MEL-2 > 100 µM | KM-20L2 > 100 µM | LXFL 529 > 100 µM | HL-60 > 100 µM | Malme-3M > 100 µM | UACC-257 > 100 µM | M19-MEL > 100 µM | SK-MEL-5 > 100 µM | CCRF-CEM > 100 µM | SNB-75 > 100 µM | SF-295 > 100 µM | NCI-H522 > 100 µM | SR > 100 µM | M14 > 100 µM

CCOC(=O)/C=C(\C)c1ccc(OC)cc1
> 100 µM: HCT-15
inactive: U-251 > 100 µM | SK-MEL-28 > 100 µM | NCI-H226 > 100 µM | EKVX > 100 µM | OVCAR-8 > 100 µM | SNB-19 > 100 µM | RPMI-8226 > 100 µM | DLD-1 > 100 µM | TK-10 > 100 µM | HCC 2998 > 100 µM | LOX IMVI > 100 µM | ACHN 74.1 µM | KM12 > 100 µM | HCT-116 > 100 µM | NCI-H460 > 100 µM | OVCAR-4 > 100 µM | SNB-78 > 100 µM | SN12C > 100 µM | CAKI-1 > 100 µM | A498 89.3 µM | DMS-273 > 100 µM | XF498 > 100 µM | UO-31 > 100 µM | NCI-H23 > 100 µM | IGROV-1 > 100 µM | HOP-18 > 100 µM | A549 > 100 µM | COLO 205 > 100 µM | SF-268 > 100 µM | SW-620 > 100 µM | HT-29 88.9 µM | RXF 393 > 100 µM | DMS-114 > 100 µM | OVCAR-5 > 100 µM | SK-MEL-2 > 100 µM | KM-20L2 > 100 µM | LXFL 529 > 100 µM | HL-60 > 100 µM | Malme-3M > 100 µM | UACC-257 > 100 µM | SK-MEL-5 > 100 µM | SNB-75 > 100 µM | SF-295 > 100 µM | HOP-92 > 100 µM | SR > 100 µM | SF-539 > 100 µM | M14 > 100 µM

O=C(N/C(=C\c1cccc([N+](=O)[O-])c1)c1nc2c3c(ccc2[nH]1)C(=O)c1ccccc1C3=O)c1ccccc1
inactive: OVCAR-3 49.1 µM | U-251 34.8 µM | SK-MEL-28 19.9 µM | NCI-H226 14 µM | EKVX 12.8 µM | OVCAR-8 36.5 µM | SNB-19 41.4 µM | RPMI-8226 14.1 µM | DLD-1 12.2 µM | 786-0 26.1 µM | TK-10 20.2 µM | ACHN 16.6 µM | KM12 14.5 µM | HCT-116 31.6 µM | NCI-H460 24.7 µM | HOP-62 37.8 µM | UACC-62 55.2 µM | SNB-78 > 100 µM | SN12C 28 µM | CAKI-1 7.18 µM | A498 83 µM | XF498 57.9 µM | SK-OV-3 6.78 µM | UO-31 > 100 µM | NCI-H23 30.3 µM | HOP-18 > 100 µM | A549 30.9 µM | SF-268 17.8 µM | SW-620 45.5 µM | HT-29 35.6 µM | DMS-114 26.4 µM | OVCAR-5 26.5 µM | SK-MEL-2 35 µM | KM-20L2 30.2 µM | LXFL 529 16 µM | Malme-3M 40.7 µM | SK-MEL-5 31.2 µM | SNB-75 58.6 µM | NCI-H522 16.5 µM | HOP-92 32.4 µM | SR 5.86 µM | SF-539 21.4 µM | M14 45.5 µM
15 µM: HCT-15

CC(NS(=O)(=O)c1ccc(Cl)cc1)C(=O)O (configuration not stated)
inactive: OVCAR-3 > 100 µM | U-251 > 100 µM | SK-MEL-28 > 100 µM | EKVX > 100 µM | OVCAR-8 > 100 µM | SNB-19 > 100 µM | RPMI-8226 > 100 µM | DLD-1 > 100 µM | 786-0 > 100 µM | TK-10 > 100 µM | LOX IMVI > 100 µM | ACHN > 100 µM | KM12 > 100 µM | NCI-H460 > 100 µM | OVCAR-4 > 100 µM | UACC-62 > 100 µM | SN12C > 100 µM | CAKI-1 > 100 µM | A498 > 100 µM | DMS-273 > 100 µM | XF498 66.7 µM | MOLT-4 > 100 µM | SK-OV-3 > 100 µM | UO-31 > 100 µM | NCI-H23 > 100 µM | IGROV-1 > 100 µM | HOP-18 > 100 µM | A549 > 100 µM | COLO 205 > 100 µM | SF-268 > 100 µM | SW-620 > 100 µM | K562 > 100 µM | HT-29 > 100 µM | RXF 393 > 100 µM | OVCAR-5 > 100 µM | SK-MEL-2 > 100 µM | KM-20L2 > 100 µM | LXFL 529 > 100 µM | HL-60 > 100 µM | Malme-3M > 100 µM | UACC-257 > 100 µM | M19-MEL > 100 µM | SK-MEL-5 > 100 µM | CCRF-CEM > 100 µM | SNB-75 > 100 µM | SF-295 > 100 µM | NCI-H522 > 100 µM | HOP-92 > 100 µM | SF-539 > 100 µM | M14 > 100 µM
> 100 µM: HCT-15
